Measurements: patent US8916554B2, “Amino-derivatives as novel inhibitors of histone deacetylase” (Janssen Pharmaceutica N.V., priority 2002, dated 2014)
Converted amounts (≈) assume the structure as drawn. Read-outs that look alike come from different tables or passages of the source.

Assays:
[1] = biological target: histone deacetylase (HDAC), HeLa nuclear extracts; assay: In vitro assay for inhibition of histone deacetylase; format: biochemical; design: key: pIC50 = negative log of IC50; settings: [3H]acetylated histone H4 peptide substrate
Experimental: The in vitro assay for inhibition of histone deacetylase (see example C.1) measures the inhibition of HDAC enzymatic activity obtained with the compounds of formula (I).
HeLa nuclear extracts (supplier: Biomol) were incubated at 60 μg/ml with 2×10^−8 M of radiolabeled peptide substrate. As a substrate for measuring HDAC activity a synthetic peptide, i.e. the amino acids 14-21 of histone H4, was used. The substrate is biotinylated at the NH2-terminal part with a 6-aminohexanoic acid spacer, and is protected at the COOH-terminal part by an amide group and specifically [^3H]acetylated at lysine 16. The substrate, biotin-(6-aminohexanoic)Gly-Ala-([^3H]-acetyl-Lys-Arg-His-Arg-Lys-Val-NH2), was added in a buffer containing 25 mM Hepes, 1 M sucrose, 0.1 mg/ml BSA and 0.01% Triton X-100 at pH 7.4. After 30 min the deacetylation reaction was terminated by the addition of HCl and acetic acid. (final concentration 0.035 mM and 3.8 mM respectively). After stopping the reaction, the free ^3H-acetate was extracted with ethylacetate. After mixing and centrifugation, the radioactivity in an aliquot of the upper (organic) phase was counted in a β-counter.
For each experiment, controls (containing HeLa nuclear extract and DMSO without compound), a blank incubation (containing DMSO but no HeLa nuclear extract or compound) and samples (containing compound dissolved in DMSO and HeLa nuclear extract) were run in parallel. In first instance, compounds were tested at a concentration of 10^−5M. […] In each test the blank value was substracted from both the control and the sample values. The control sample represented 100% of substrate deactylation. For each sample the radioactivity was expressed as a percentage of the mean value of the controls. […] Herein the effects of test compounds are expressed as pIC50 (the negative log value of the IC50-value).

[2] = test system: human A2780 ovarian carcinoma cells; assay: Determination of antiproliferative activity on A2780 cells (MTT); format: cell-based; settings: four days of incubation; for IC50: Homo sapiens, 96 h, read-out: Cellular activity pIC50 (converted)
Experimental: Cellular activity of the compounds of formula (I) was determined on A2780 tumour cells using a colorimetric assay for cell toxicity or survival (Mosmann Tim, Journal of Immunological Methods 65: 55-63, 1983)(see example C.2).
All compounds tested were dissolved in DMSO and further dilutions were made in culture medium. Final DMSO concentrations never exceeded 0.1% (v/v) in cell proliferation assays. Controls contained A2780 cells and DMSO without compound and blanks contained DMSO but no cells. MTT was dissolved at 5 mg/ml in PBS. A glycine buffer comprised of 0.1 M glycine and 0.1 M NaCl buffered to pH 10.5 with NaOH (1 N) was prepared (all reagents were from Merck).
The human A2780 ovarian carcinoma cells (a kind gift from Dr. T. C. Hamilton [Fox Chase Cancer Centre, Pennsylvania, USA]) were cultured in RPMI 1640 medium supplemented with 2 mM L-glutamine, 50 μg/ml gentamicin and 10% fetal calf serum. Cells were routinely kept as monolayer cultures at 37° C. in a humidified 5% CO2 atmosphere. Cells were passaged once a week using a trypsin/EDTA solution at a split ratio of 1:40. All media and supplements were obtained from Life Technologies. Cells were free of mycoplasma contamination as determined using the Gen-Probe Mycoplasma Tissue Culture kit (supplier: BioMérieux).
Cells were seeded in NUNC™ 96-well culture plates (Supplier: Life Technologies) and allowed to adhere to the plastic overnight. Densities used for plating were 1500 cells per well in a total volume of 200 μl medium. After cell adhesion to the plates, medium was changed and drugs and/or solvents were added to a final volume of 200 μl. Following four days of incubation, medium was replaced by 200 μl fresh medium and cell density and viability was assessed using an MTT-based assay. To each well, 25 μl MTT solution was added and the cells were further incubated for 2 hours at 37° C. The medium was then carefully aspirated and the blue MTT-formazan product was solubilized by addition of 25 μl glycine buffer followed by 100 μl of DMSO. […] Within an experiment, the results for each experimental condition are the mean of 3 replicate wells. For initial screening purposes, compounds were tested at a single fixed concentration of 10^−6 M. For active compounds, the experiments were repeated to establish full concentration-response curves. For each experiment, controls (containing no drug) and a blank incubation (containing no cells or drugs) were run in parallel. The blank value was subtracted from all control and sample values. For each sample, the mean value for cell growth (in absorbance units) was expressed as a percentage of the mean value for cell growth of the control. […] Herein the effects of test compounds are expressed as pIC50 (the negative log value of the IC50-value).

[3] = Kinetic solubility in aqueous media; format: physicochemical; settings: aqueous buffer, kinetic from dmso stock; phosphate citrate buffer pH 7.4, turbidity by nephelometer; read-out: Solubility Score
Experimental: Kinetic solubility in aqueous media measures the ability of a compound to stay in aqueous solution upon dilution (see example C.3).
DMSO-stock solutions are diluted with a single aqueous buffer solvent in 3 consecutive steps. For every dilution turbidity is measured with a nephelometer.
In the first dilution step, 10 μl of a concentrated stock-solution of the active compound, solubilized in DMSO (5 mM), was added to 100 μl phosphate citrate buffer pH 7.4 and mixed. In the second dilution step, an aliquot (20 μl) of the first dilution step was further dispensed in 100 μl phosphate citrate buffer pH 7.4 and mixed. Finally, in the third dilution step, a sample (20 μl) of the second dilution step was further diluted in 100 μl phosphate citrate buffer pH 7.4 and mixed. All dilutions were performed in 96-well plates. Immediately after the last dilution step the turbidity of the three consecutive dilution steps were measured with a nephelometer. Dilution was done in triplicate for each compound to exclude occasional errors. Based on the turbidity measurements a ranking is performed into 3 classes. Compounds with high solubility obtained a score of 3 and for this compounds the first dilution is clear. Compounds with medium solubility obtained a score of 2. For these compounds the first dilution is unclear and the second dilution is clear. […] The solubility of 14 compounds was measured.

[4] = not given; remark: listed apart in the source

O=C(NO)c1ccc(NC2CCCN(S(=O)(=O)c3ccc(-c4ccccc4)cc3)CC2)nc1 (stereo not shown) [Co. No. 2]
Enzyme activity pIC50 [1]: 6.871
IC50 [2]: 1570 nM
solubility [3]: < 75.8 µM

O=C(NO)c1cnc(NCC2CN(S(=O)(=O)c3ccc4ccccc4c3)CCO2)nc1 (stereo not shown) [Co. No. 9]
Enzyme activity pIC50 [1]: 7.161
IC50 [2]: 2150 nM
solubility [3]: > 454 µM
melting point: 226 °C

O=C(NO)c1cnc(NCC2CCN(S(=O)(=O)c3ccc4ccccc4c3)CC2)nc1 [Co. No. 7]
Enzyme activity pIC50 [1]: 7.408
IC50 [2]: 7780 nM
solubility [3]: < 75.8 µM
melting point: 240 °C

O=C(NO)c1ccc(NC2CCN(S(=O)(=O)c3ccc4ccccc4c3)CC2)nc1 [Co. No. 1]
Enzyme activity pIC50 [1]: 7.676
IC50 [2]: 2450 nM
solubility [3]: > 454 µM
melting point: 160 °C

O=C(NO)c1ccc(NC2CCCN(S(=O)(=O)c3ccc(-c4ccccc4)cc3)CC2)nc1 (stereo not shown) (hydrate or solvate) [Co. No. 2]
melting point: 115 °C

O=C(NO)c1cnc(NCC2CCCN(S(=O)(=O)c3ccc4ccccc4c3)C2)nc1 (stereo not shown) [Co. No. 8]
Enzyme activity pIC50 [1]: 7.23
IC50 [2]: 1900 nM
solubility [3]: < 75.8 µM
melting point: 137 °C

O=C(NO)c1cnc(NC2CCN(S(=O)(=O)c3ccc4ccccc4c3)CC2)nc1 [Co. No. 5]
Enzyme activity pIC50 [1]: 7.525
IC50 [2]: 3370 nM
solubility [3]: > 454 µM
melting point: 256 °C

COc1cc(N)c(Cl)cc1C(=O)NC1CCN(CCCOc2ccc(F)cc2)CC1OC (stereo not shown) [Cisapride]
% metabolism ([4]; human, 15 min, 5 μM): 45%

O=C(NO)c1cnc(NC2CCCN(S(=O)(=O)c3ccc4ccccc4c3)CC2)nc1 (stereo not shown) [Co. No. 3]
Enzyme activity pIC50 [1]: 7.306
IC50 [2]: 3120 nM
solubility [3]: 75.8 to 454 µM (≈ 33.5 to 201 µg/mL)
melting point: 140 °C

O=C(NO)c1cnc(NC2CCN(S(=O)(=O)c3ccc(-c4ccccc4)cc3)CC2)nc1 [compound 14]
Enzyme activity pIC50 [1]: 7.077
Cellular activity pIC50 [2]: 5.201

CCCO [propanol]
% metabolism ([4]; after 15 min of incubation with active microsomes (1 mg/ml), compound 5 μM): 25%

O=C(NO)c1ccc(NC2CCCN(S(=O)(=O)c3ccc4c(c3)CCCC4)CC2)nc1 (stereo not shown) (hydrate or solvate) [Co. No. 6]
melting point: 115 °C

O=C(NO)c1cnc(NC2CCCN(S(=O)(=O)c3ccc(-c4ccccc4)cc3)CC2)nc1 (stereo not shown) [Co. No. 4]
Enzyme activity pIC50 [1]: 7.314
IC50 [2]: 1450 nM
solubility [3]: < 75.8 µM
melting point: 227 °C

O=C(NO)c1ccc(NC2CCCN(S(=O)(=O)c3ccc4c(c3)CCCC4)CC2)nc1 (stereo not shown) [Co. No. 6]
Enzyme activity pIC50 [1]: 6.853
IC50 [2]: 4520 nM
solubility [3]: 75.8 to 454 µM (≈ 33.7 to 202 µg/mL)
